Test system: immunoglobulin titers (IgG and IgM) specific for M. tuberculosis
Set-up: species or system rabbits
Settings: rabbit, in vivo, sc

Sequence: FNNFTVSFWLRVPKVSASHLE [FNN-21, reference compound]
- immunoglobulin titer, average absorbance, Day 1: 0.14 AU 405 nm
- immunoglobulin titer, average absorbance, Day 3: 0.15 AU 405 nm
- immunoglobulin titer, average absorbance, Day 5: 0.13 AU 405 nm
- immunoglobulin titer, average absorbance, Day 7: 0.16 AU 405 nm
- immunoglobulin titer, average absorbance, Day 10: 0.25 AU 405 nm
- immunoglobulin titer, average absorbance, Day 14: 0.35 AU 405 nm

From patent publication US7608589B2, “Peptidyl diacylglycerides” (priority 2005, dated 2009)
